Where two headings read alike, the source gives them in different places.
How the values were obtained:
[1] = test system: CYP2D6; assay: In vitro scaling factors from CYP2D6 activity score-specific in vitro metabolite formation rates; type: in vitro ADME, human
Source text: Here, kcat, AS=i represents the catalytic rate constant for CYP2D6 AS = i, kcat, AS=2 is the catalytic rate constant for the NM population and IVSFi is the corresponding in vitro scaling factor (IVSF).
S2. Drug-Gene-Interaction (DGI) Modeling
S2.1. CYP2D6 in vitro Scaling Factors
The estimated CYP2D6 kcat values for the NM population were extrapolated to the intermediate metabolizers (IM) (AS=0.5, AS=0.75 and AS=1) and ultrarapid metabolizers (UM) populations according to Equation 1 in the main manuscript, using in vitro scaling factors (IVSFs). Determination of IVSFs were based on AS-specific in vitro metabolite formation rates relative to the corresponding formation rate in NM as a reference. The respective IVSFs for each CYP2D6-dependent pathway are depicted in Table S8. Measured in vitro data for (E)-4-OH-Clom and (E)-4-OH-DE-Clom AS-specific formation rates were available, while mean values were assumed for the remaining CYP2D6-dependent metabolic pathways.
Table S8. Employed in vitro scaling factors (IVSFs) for individual CYP2D6 activity scores. […]

[2] = test system: CYP2B6; parameters: method as in ref [17, 18] of supplement; conditions: literature value adapted with fu,inc; ref [17, 18] of supplement; read-out: CYP2B6 Km → (E)-4-OH-Clom; cited from earlier work
[3] = test system: CYP3A4; parameters: method as in ref [17, 18] of supplement; conditions: literature value adapted with fu,inc; ref [17, 18] of supplement; read-out: CYP3A4 Km → (E)-DE-Clom; cited from earlier work
[4] = test system: CYP2D6; conditions: cited from earlier work; for Km: literature value adapted with fu,inc
[5] = test system: CYP2D6; assay: Fraction metabolized via CYP2D6 calculated from observed AUClast (PM vs NM, Equation S1); type: in vivo, human; conditions: calculated from observed relative AUClast increase PM vs NM
Source text: Calculation of Fractions Metabolized
(§1) (normal metabolizers (NM)) [39]. […] In addition, data from
(§2) the CYP2D6 NM population in the clarithromycin DDI scenario (CYP3A4 inhibition) was used to
(§3) For this, the observed relative AUClast increase in the NM population between
(§4) the DDI scenario with CYP3A4 inhibition and the control scenario without inhibition was used,
(§5) 1 −fm = AUClast,effect,AS=iAUClast,control (S1)

[6] = Pharmacokinetic panel study in CYP2D6-genotyped healthy female volunteers (observed plasma AUClast/Cmax, DGI and DD(G)I with clarithromycin or paroxetine); type: in vivo, human
Description: Clinical data from a recently performed pharmacokinetic panel study (EudraCT-Nr.: 2009-014531-20, ClinicalTrails.gov: NCT01289756) were used for PBPK model development. The study protocol, patient information sheet and consent form were approved by the Ethics Committee of the University of Tübingen and the German Federal Institute for Drugs and Medical Devices (BfArM). All study participants had signed an informed consent form.
The study was conducted in 20 healthy, Caucasian, premenopausal female volunteers that were genotyped for CYP2D6 polymorphisms and subsequently assigned to predicted phenotypes according to the respective CYP2D6 activity score (AS) as depicted in Table 1 [17, 18]. […] After a wash-out phase of at least three weeks, clomiphene was administered concomitantly with the strong CYP3A4 inhibitor clarithromycin [19]. Here, the participants received 500 mg clarithromycin twice daily for four days. On day 5, a single dose of clomiphene citrate was administered together with 500 mg clarithromycin. Finally, in the third period, all subjects received clomiphene citrate together with the strong CYP2D6 inhibitor paroxetine. Here, 40 mg paroxetine was administered once daily for two days. On day 3, participants received a single dose of clomiphene citrate concomitantly with 40 mg paroxetine (Figure 1).
For the evaluation of DGI and DD(G)I effects, the predicted AUClast and Cmax effect ratios were calculated according to Equations (4) and (5) and compared with the corresponding observed values. Here, model performance was assessed using the prediction acceptance limits proposed by Guest et al. with 1.25-fold variability. (4) AUClast, AS=i ratio=AUClast, effect, AS=i/AUClast, control (5) Cmax, AS=i ratio=Cmax, effect, AS=i/Cmax, control
For the calculation of DGI ratios, AUClast, effect, AS=i and Cmax, effect, AS=i represent the AUClast and Cmax for CYP2D6 AS = i, while AUClast, control and Cmax, control are the AUClast and Cmax values for the NM (AS = 2) population. For the calculation of DD(G)I ratios, AUClast, effect, AS=i and Cmax, effect, AS=i represent the AUClast and Cmax for the CYP2D6 AS = i in the DD(G)I scenario with clarithromycin or paroxetine, while AUClast, control and Cmax, control are the AUClast and Cmax values for the CYP2D6 AS = i without the concomitant use of perpetrator drugs.

[7] = cited from earlier work
[8] = Bioavailability calculated from literature AUC0-24h after oral and intravenous clomiphene citrate; type: in vivo, human; conditions: 50 mg clomiphene citrate; intravenous study n = 2
Source text: Both isomers show highly distinct pharmacokinetic characteristics and also differ in affinity to the target receptor [22, 28]. […] While the calculated value from the literature is based on an intravenous study with a small number of study participants (n = 2), a low bioavailability can be supported with the developed PBPK model.

[9] = test system: CYP3A4; assay: Fraction metabolized via CYP3A4 calculated from observed AUClast (NM with vs without clarithromycin, Equation S1); type: in vivo, human; conditions: estimated from observed AUClast increase in NM with clarithromycin
Source text: Calculation of Fractions Metabolized
as §1, §2, §3, §4
Of note, a complete CYP3A4 inhibition through clarithromycin
was assumed, given the strong and mechanism-based inhibition through clarithromycin, which was
as §5
for the NM population without concomitant clarithromycin administration.

SMILES: CCN(CC)CCOc1ccc(/C(=C(/Cl)c2ccccc2)c2ccccc2)cc1 [(E)-Clom, (E)-clomiphene, reference compound]
- IVSF, CYP2D6-mediated pathway → (E)-DE-Clom ([1]; AS=0, mean value assumed): 0
- IVSF, CYP2D6-mediated pathway → undef. ([1]; AS=0, mean value assumed): 0
- IVSF, CYP2D6-mediated pathway → (E)-4-OH-Clom ([1]; AS=0, relative to NM, from in vitro formation rates, supplement ref [17]): 0
- IVSF, CYP2D6-mediated pathway → (E)-DE-Clom ([1]; AS=0.5, mean value assumed): 0.17
- IVSF, CYP2D6-mediated pathway → undef. ([1]; AS=0.5, mean value assumed): 0.17
- IVSF, CYP2D6-mediated pathway → (E)-4-OH-Clom ([1]; AS=0.5, relative to NM, from in vitro formation rates, supplement ref [17]): 0.19
- IVSF, CYP2D6-mediated pathway → (E)-DE-Clom ([1]; AS=0.75, mean value assumed): 0.23
- IVSF, CYP2D6-mediated pathway → undef. ([1]; AS=0.75, mean value assumed): 0.23
- IVSF, CYP2D6-mediated pathway → (E)-4-OH-Clom ([1]; AS=0.75, relative to NM, from in vitro formation rates, supplement ref [17]): 0.27
- IVSF, CYP2D6-mediated pathway → (E)-DE-Clom ([1]; AS=1, mean value assumed): 0.51
- IVSF, CYP2D6-mediated pathway → undef. ([1]; AS=1, mean value assumed): 0.51
- IVSF, CYP2D6-mediated pathway → (E)-4-OH-Clom ([1]; AS=1, relative to NM, from in vitro formation rates, supplement ref [17]): 0.57
- IVSF, CYP2D6-mediated pathway → (E)-4-OH-Clom ([1]; AS=2 (NM, reference)): 1
- IVSF, CYP2D6-mediated pathway → (E)-DE-Clom ([1]; AS=2 (NM, reference)): 1
- IVSF, CYP2D6-mediated pathway → undef. ([1]; AS=2 (NM, reference)): 1
- IVSF, CYP2D6-mediated pathway → (E)-DE-Clom ([1]; AS=3, mean value assumed): 1.41
- IVSF, CYP2D6-mediated pathway → undef. ([1]; AS=3, mean value assumed): 1.41
- IVSF, CYP2D6-mediated pathway → (E)-4-OH-Clom ([1]; AS=3, relative to NM, from in vitro formation rates, supplement ref [17]): 1.52
- Km [2]: 0.6 µM
- Km [3]: 0.78 µM
- intrinsic clearance of CYP2D6 pathway to (Z)-3-hydroxyclomiphene compared to formation of (E)-4-OH-Clom ([4]; higher, ref [19] of supplement): 1.8 fold
- Km ([4]; ref [17, 18] of supplement, read-out: CYP2D6 Km → (E)-DE-Clom): 0.78 µM
- Km ([4]; ref [19] ((E)-Clom, (E)-4-OH-Clom), [17, 18] ((E)-DE-Clom) of supplement, read-out: CYP2D6 Km → undef.): 0.03 µM
- Km ([4]; ref [19] of supplement, read-out: CYP2D6 Km → (E)-4-OH-Clom): 0.13 µM
- fraction metabolized (fm) via CYP2D6 [5]: ~90%
- order of AUClast across CYP2D6 phenotypes ([6]; DGI setting): AUCPM > AUCIM > AUCNM > AUCUM
- exposure increase in clarithromycin DD(G)I scenario vs control ([6]; NM): ~ 15%
- AUClast increase with concomitant paroxetine ([6]; all phenotypes except PM): 2.5–12 fold
- AUClast change during CYP3A4 inhibition ([6]; clarithromycin, all phenotypes): slight increase
- Solubility (pH 6.8) ([7]; pH 6.8, ref [24] of supplement): 0.0138 mg/ml
- pKa (base), literature ([7]; ref [23], [30], [34], [38] of supplement (ChemAxon Chemicalize)): 9.31
- bioavailability calculated from reported AUC0-24h after oral and intravenous application [8]: ~ 6.3%
- fraction metabolized (fm) via CYP3A4 [9]: approximately 13%
